Results taken from patent publication US20200093843A1, “COMPOUNDS FOR TREATMENT OF INTRACTABLE EPILEPSY AND DOORS SYNDROME” (VIB VZW, priority 2016, published 2020).
Entries after “also recorded” stand apart in the source; their conditions may differ.

Key:
[1] = system: sky^1/2 mutants expressing Sky^R79C; assay: Seizure assay in drug-fed flies; type: in vivo, Drosophila; conditions: for rescue of seizure-like behaviour: versus mock-treated
Experimental: To assure that stimulation of PI(4,5)P2 levels in vivo can rescue the defects associated with the Skywalker cationic pocket mutants (Sky^R79C), a commercially available alkyl phospholipid compound, Miltefosine, with known impact on PI(4,5)P2 levels was tested for treatment of gender selected adult 4-7 day old sky^1/2 flies with cationic pocket mutations. For drug feeding, 10-20 flies per treatment vial were maintained in a 12 h light and dark cycle to maintain circadian rhythm, while the analysis was performed on 5 flies per vial for flight, after acclimatization to the test chamber, and 10 flies per vial for stimulation or behavioural challenge by vortexing. In total n=20 flies were analyzed per treatment as well as for the control flies reared on normal food (mock-treated). The effect of Miltefosine (Sigma, M5571) daily administered in dyed food at 50 μg/mL or at 100 μg/mL was tested over a feeding period of 2 and 8 days of drug exposure, after which animal behaviour was analyzed via flight and seizure assays.
Each data point represents averages of 10 animals tested over 8 days and analyzed per drug treatment as well as the control flies reared on normal food (mock-treated).
For drug treatment, a concentration range between […] was tested for daily administration. […] Treatments were performed and were tested over a feeding period of 2 and 8 days of drug exposure, after which animal behaviour was tested in flight and seizure assays.
Adult flies of the genotype sky^1/sky^2 (sky^1/2); nsyb-Gal4/UAS-Sky^R79C or genotypes as indicated, were raised at 21° C. on standard fly food, containing the indicated drugs (Miltefosine, Perifosine, Edelfosine, Erufosine) or on control food prepared without drugs. Animals were collected and gender selected 2 to 5 days after enclosure. On days 2 and 8 of incubation on drugs, flight assays were performed with groups of 5 gender-selected animals in each transparent vial. Following a tap to collect the animals at the bottom of the vial, behaviour was distinguished between walking, jumping and flight. Seizure assays were performed with groups of 10 gender-selected animals that were transferred into transparent vials and excited by vortexing once for 10 seconds in behaviour studies, or in a sequence (1 minute vortexing, 1 minute rest, 1 minute vortexing) for drug treatment studies. This test sequence was repeated following 5 minutes of rest. Active and fallen flies were quantified over the course of the following minute. To ensure natural behaviour animals were not anesthetized on the day of experiments or over the course of drug application.

[2] = molecular target: T1, 5′-phosphatase domain of Synaptojanin-1 (Homo sapiens, UniProt O43426); assay: Malachite Green phosphatase assay; type: biochemical; conditions: 1 mM compound, 1% DMSO, 40 μM IP3 substrate, 1 h, background subtracted
T1 construct: made in house
T1 sequence (O43426 528-873): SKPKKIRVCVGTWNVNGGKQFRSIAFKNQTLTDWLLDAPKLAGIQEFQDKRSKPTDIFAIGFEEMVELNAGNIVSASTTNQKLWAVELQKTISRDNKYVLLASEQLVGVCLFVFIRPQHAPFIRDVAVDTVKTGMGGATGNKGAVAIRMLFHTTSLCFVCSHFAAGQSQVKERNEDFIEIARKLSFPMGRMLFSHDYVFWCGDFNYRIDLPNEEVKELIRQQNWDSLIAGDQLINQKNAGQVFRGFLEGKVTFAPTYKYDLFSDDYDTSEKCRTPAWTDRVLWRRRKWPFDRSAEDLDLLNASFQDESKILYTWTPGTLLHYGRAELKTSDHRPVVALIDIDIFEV
Source text: First, an expression plasmid for the recombinant expression of the 5′-phosphatase domain of Synj1 (SEQ ID NO:1) was constructed. […] A commercially available assay in a 96-well plate format is the Malachite Green Phosphate Assay Kit (BioAssay Systems).
After assay optimization, the assay is used to measure inhibitory activity of known compounds as well as to further allow a high-throughput setup for compound screening.
The Malachite Green Phosphate Assay Kit (BioAssay Systems) is a discontinuous assay that measures the concentrations of enzymatically released phosphate after formation of a complex with malachite green and molybdate (absorbance is measured at 620 nm). […] As a read-out the Absorbance at 620 nm after 60 min incubation is measured and the background starting signal is subtracted. For inhibitory compound screening, 1 mM of the test compound dissolved in 1% DMSO was used.

wild type Sky1-353 = molecular target: T2, wild type Sky1-353 (Drosophila melanogaster, UniProt Q9VIH7); assay: Liposome flotation assay; type: binding; conditions: for binding of Sky1-353 to liposomes: PC:PS liposomes enriched with 2% of the indicated phosphoinositide
T2 construct: the TBC domain of Sky (Sky1-353) was expressed from the pET28a vector (Novagen) as an N-terminal His6-tag fusion; His6 (N); made in house; host or cells: E. coli C41 (DE3)
T2 sequence (Q9VIH7 1-353): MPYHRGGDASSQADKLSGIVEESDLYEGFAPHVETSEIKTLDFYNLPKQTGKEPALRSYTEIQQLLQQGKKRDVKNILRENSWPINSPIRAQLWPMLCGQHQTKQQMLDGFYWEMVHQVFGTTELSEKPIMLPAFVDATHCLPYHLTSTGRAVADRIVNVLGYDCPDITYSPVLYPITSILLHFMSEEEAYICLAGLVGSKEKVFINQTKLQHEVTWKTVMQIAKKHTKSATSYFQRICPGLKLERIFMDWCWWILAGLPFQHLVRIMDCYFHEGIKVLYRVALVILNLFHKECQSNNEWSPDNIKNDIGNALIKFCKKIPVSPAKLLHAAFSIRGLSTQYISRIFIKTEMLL
Source text: TBC1D24 and Skywalker regulate vesicle trafficking, a process that requires membrane interactions^20,24,30. We therefore hypothesized that the positively charged pocket of Sky serves as a binding module to negatively charged membranes. We used a liposome flotation assay and mixed Sky1-353 with liposomes produced from Folch-extracted total brain lipids and centrifuged the sample in a sucrose gradient. After recovering six fractions from the top to the bottom of the centrifugation tube we find that Sky1-353 is present in the top fractions that contain the liposomes. […] A major class of lipids that regulates presynaptic activity are phosphoinositides^31. Lipid strip interaction experiments using Sky1-353 are indeed compatible with Sky interacting with phosphoinositides. We therefore resorted to liposome flotation assays using liposomes composed of phosphatidylcholine and phosphatidylserine and supplemented with different types of phosphoinositides (FIG. 3b). […] Moreover, the binding can be reversed by adding increasing concentrations of salt, as would be expected from binding that is mainly driven by electrostatic interactions.
Liposomes were prepared using either Folch brain total lipid extract or using a mix of phosphatidylcholine and phosphatidylserine (80:20 ratio) supplemented with 0.5%, 2% or 5% of a specific phosphoinositide as indicated. The liposomes were subsequently incubated with 6 μg of wild-type or mutant Sky1-353. PI(4,5)P2-Grip (Echelon Biosciences, Salt Lake City, USA) was used as a positive control. Subsequently, this mix was loaded on a sucrose cushion (30% sucrose layer, 25% sucrose layer and HP30 buffer layer) and centrifuged. Individual fractions from the top to the bottom were collected and assayed using Western blotting against His6 (Sky) or GST (PI(4,5)P2-Grip).

Sky1-353 R79C mutant = molecular target: T3, Sky1-353 R79C mutant (Drosophila melanogaster, UniProt Q9VIH7, R79C); assay: Thermal shift assay, IP3 binding to Sky1-353 R79C
T3 construct: the TBC domain of Sky (Sky1-353) was expressed from the pET28a vector (Novagen) as an N-terminal His6-tag fusion; His6 (N); made in house; host or cells: E. coli C41 (DE3)
T3 sequence (Q9VIH7 1-353 R79C): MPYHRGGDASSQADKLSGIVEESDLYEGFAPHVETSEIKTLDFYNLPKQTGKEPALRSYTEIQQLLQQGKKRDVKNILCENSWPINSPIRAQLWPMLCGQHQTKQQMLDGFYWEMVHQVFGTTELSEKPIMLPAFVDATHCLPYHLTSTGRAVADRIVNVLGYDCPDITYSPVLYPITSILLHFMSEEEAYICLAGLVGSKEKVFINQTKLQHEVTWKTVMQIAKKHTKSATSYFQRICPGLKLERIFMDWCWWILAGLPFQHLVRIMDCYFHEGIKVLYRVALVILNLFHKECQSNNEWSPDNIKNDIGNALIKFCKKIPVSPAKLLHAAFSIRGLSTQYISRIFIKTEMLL
Experimental: (§1) The thermal stability of the R79C and R281C mutants in absence of ligands (Tm=32° C.) is somewhat lower compared to the wild type protein (Tm=34° C.) and the R335P mutant (Tm=35° C.). […] These experimental data moreover correspond with our structural data where R79 and R281 both form bifurcated electrostatic interactions with the phosphate on position 5, while R335 forms a single electrostatic interaction with the phosphate group on position 1 (FIG. 3e).
(§2) Thermal unfolding was detected by following SYPRO orange fluorescence using a CFX connect Real-Time PCR System (BioRad). […] The temperature was increased from 20° C. to 80° C. at 0.5° C./30s steps. All measurements were done in triplicate.

Sky1-353 R281C mutant = molecular target: T4, Sky1-353 R281C mutant (Drosophila melanogaster, UniProt Q9VIH7, R281C); assay: Thermal shift assay, IP3 binding to Sky1-353 R281C; conditions: saturating amount of IP3, R281C mutant
T4 construct: the TBC domain of Sky (Sky1-353) was expressed from the pET28a vector (Novagen) as an N-terminal His6-tag fusion; His6 (N); made in house; host or cells: E. coli C41 (DE3)
T4 sequence (Q9VIH7 1-353 R281C): as the sequence (Q9VIH7 1-353 R79C) above, with C79R, R281C counted along it
Experimental: as §1, §2

[3] = molecular target: T5, wild type Sky1-353 (TBC domain of Skywalker) (Drosophila melanogaster, UniProt Q9VIH7); assay: Thermal shift assay, ligand binding to wild type Sky1-353
T5 construct: the TBC domain of Sky (Sky1-353) was expressed from the pET28a vector (Novagen) as an N-terminal His6-tag fusion; His6 (N); made in house; host or cells: E. coli C41 (DE3)
T5 sequence (Q9VIH7 1-353): T2 sequence (Q9VIH7 1-353)
Experimental: as §2

Sky1-353 R335P mutant = molecular target: T6, Sky1-353 R335P mutant (Drosophila melanogaster, UniProt Q9VIH7, R335P); assay: Thermal shift assay, IP3 binding to Sky1-353 R335P
T6 construct: the TBC domain of Sky (Sky1-353) was expressed from the pET28a vector (Novagen) as an N-terminal His6-tag fusion; His6 (N); made in house; host or cells: E. coli C41 (DE3)
T6 sequence (Q9VIH7 1-353 R335P): as the sequence (Q9VIH7 1-353 R79C) above, with C79R, R335P counted along it
Experimental: as §1, §2

[4] = described in literature; listed as erufosine; cited from earlier work
[5] = PI(4,5)P2 varied from 0% to 5% in liposomes

CCCCCCCCCCCCCCCCOP(=O)([O-])OCC[N+](C)(C)C [Miltefosine]
rescue of seizure-like behaviour ([1]; 50 μg/mL in food, 2 days of drug feeding, p<0.001): highly significant; also recorded: significant rescue of seizure-like behaviour
rescue of seizure-like behaviour ([1]; 50 μg/mL in food, 8 days of drug feeding, p<0.1): lasted at least up to 8 days after treatment; also recorded: significant rescue of seizure-like behaviour
rescue of seizure-like behaviour ([1]; 100 μg/mL in food (probably toxic), 2 or 8 days): did not lead to significant difference
inhibition of 5′-phosphatase activity [2]: effective inhibitors; also recorded: complete inhibition

PI(5)P
binding of Sky1-353 to liposomes (wild type Sky1-353): weak but significant binding

O=P(O)(O)O[C@@H]1[C@H](O)[C@H](O)[C@@H](OP(=O)(O)O)[C@H](OP(=O)(O)O)[C@H]1O [IP3, inositol 1,4,5-trisphosphate]
Kd (Sky1-353 R79C mutant): 325 ± 200 µM
increase in thermal stability (Sky1-353 R79C mutant; saturating amount of IP3, R79C mutant): 4 °C
increase in thermal stability (Sky1-353 R281C mutant): 4 °C
Kd [3]: 19 ± 3 µM
Kd (Sky1-353 R335P mutant): 67 ± 17 µM
increase in thermal stability (Sky1-353 R335P mutant; saturating amount of IP3, R335P mutant): 8 °C

PI(3,4,5)P3
binding of Sky1-353 to liposomes (wild type Sky1-353): strongest binding

CCCCCCCC/C=C\CCCCCCCCCCCCOP(=O)([O-])OCC[N+](C)(C)C [Erufosine]
blood-brain-barrier crossing [4]: known to allow BBB crossing

CCCCCCCCCCCCCCCCCCOP(=O)([O-])OC1CC[N+](C)(C)CC1 [Perifosine]
effect on seizures ([1]; 1000 μg/mL daily in dyed food, up to 8 days): positive effect
inhibition of 5′-phosphatase activity [2]: effective inhibitors
inhibition of 5′-phosphatase activity ([2]; listed as Perisofine): complete inhibition

phosphatidylinositol 4,5-bisphosphate [PI(4,5)P2]
binding of Sky1-353 to liposomes (wild type Sky1-353): strongest binding
PI(4,5)P2 concentration at which full binding is reached (wild type Sky1-353; [5]): 2%
lowest PI(4,5)P2 concentration at which binding is observed (wild type Sky1-353; [5]): 0.5%

PI(4)P
binding of Sky1-353 to liposomes (wild type Sky1-353): weak but significant binding

PI(3)P
binding of Sky1-353 to liposomes (wild type Sky1-353): does not bind

phosphatidylinositol [PI]
binding of Sky1-353 to liposomes (wild type Sky1-353): does not bind
